Consider 21 compounds from patent US7956070B2, “Piperidines as chemokine modulators (CCR)” (AstraZeneca AB, priority 2004, dated 2011).

As a reminder, the pKa is the pH at which an ionisable group is half protonated.

The target of the first data set is T1, human H1 receptor (Homo sapiens, UniProt P35367).
T1 construct: purchased Euroscreen SA, Brussels, Belgium ES-390-M; host or cells: recombinant CHO-K1 cells (membranes)
T1 sequence (P35367 whole entry): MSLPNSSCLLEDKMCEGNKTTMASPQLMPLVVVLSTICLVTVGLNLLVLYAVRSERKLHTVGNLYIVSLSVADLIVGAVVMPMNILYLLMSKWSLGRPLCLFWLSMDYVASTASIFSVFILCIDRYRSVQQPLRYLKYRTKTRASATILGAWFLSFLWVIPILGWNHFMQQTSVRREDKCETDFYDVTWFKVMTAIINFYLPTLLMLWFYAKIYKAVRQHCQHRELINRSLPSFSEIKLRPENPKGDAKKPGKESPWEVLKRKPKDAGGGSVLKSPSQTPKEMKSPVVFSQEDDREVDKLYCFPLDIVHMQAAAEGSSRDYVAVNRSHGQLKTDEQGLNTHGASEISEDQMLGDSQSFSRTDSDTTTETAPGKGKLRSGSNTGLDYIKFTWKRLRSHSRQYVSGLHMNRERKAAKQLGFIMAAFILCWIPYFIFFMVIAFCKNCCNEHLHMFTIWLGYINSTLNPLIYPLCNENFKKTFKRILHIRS
Briefly: Histamine H1 receptor binding, competition displacement of [3H]-pyrilamine. Conditions: 1 nM [3H]-pyrilamine, membranes from recombinant CHO-K1 cells expressing the human H1 receptor, 1 hour at room temperature; read-out: H1 pKi (converted). As for the experimental part:
Histamine H1 receptor binding activity of compounds of the invention was assessed by competition displacement of 1 nM [3H]-pyrilamine (Amersham, Bucks, Product code TRK 608, specific activity 30 Ci/mmol) to 2 μg membranes prepared from recombinant CHO-K1 cells expressing the human H1 receptor (Euroscreen SA, Brussels, Belgium, product code ES-390-M) in assay buffer (50 mM Tris pH 7.4 containing 2 mM MgCl2, 250 mM sucrose and 100 mM NaCl) for 1 hour at room temperature.
The following compounds of the invention gave inhibition of [3H]pyrilimine binding: […]
On to `N#Cc1ccc(OC2CCN(C[C@H](O)CNC(=O)c3sc(=O)[nH]c3C(F)(F)F)CC2)cc1Cl` [Example 27, N-{(2R)-3-[4-(3-Chloro-4-cyanophenoxy)piperidin-1-yl]-2-hydroxypropyl}-2-oxo-4-(trifluoromethyl)-2,3-dihydro-1,3-thiazole-5-carboxamide], for which the Ki was 251 nM. Turning to `N#Cc1cc(C(=O)NC[C@@H](O)CN2CCC(Oc3ccc(Cl)c(Cl)c3)CC2)c(C(F)(F)F)[nH]c1=O` [Example 10, 5-Cyano-N-{(2R)-3-[4-(3,4-dichlorophenoxy)piperidin-1-yl]-2-hydroxypropyl}-6-oxo-2-(trifluoromethyl)-1,6-dihydropyridine-3-carboxamide], the Ki is 126 nM. As for `CC(C)c1[nH]nnc1C(=O)NC[C@@H](O)CN1CCC(Oc2ccc(C#N)c(Cl)c2)CC1` [Example 31, N-{(2R)-3-[4-(3-Chloro-4-cyanophenoxy)piperidin-1-yl]-2-hydroxypropyl}-5-isopropyl-1H-1,2,3-triazole-4-carboxamide], the Ki is 158 nM. On the same count and under the same terms, the result for `Cn1c(C(=O)NC[C@@H](O)CN2CCC(Oc3ccc(Cl)c(Cl)c3)CC2)cc(=O)[nH]c1=O` [Example 14, N-{(2R)-3-[4-(3,4-Dichlorophenoxy)piperidin-1-yl]-2-hydroxypropyl}-3-methyl-2,6-dioxo-1,2,3,6-tetrahydropyrimidine-4-carboxamide] reads 126 nM; that for `Cc1c(OC2CCN(C[C@H](O)CNC(=O)c3sc(=O)[nH]c3C(F)(F)F)CC2)ccc(Cl)c1Cl` [Example 24, N-{(2R)-3-[4-(3,4-Dichloro-2-methylphenoxy)piperidin-1-yl]-2-hydroxypropyl}-2-oxo-4-(trifluoromethyl)-2,3-dihydro-1,3-thiazole-5-carboxamide], 20 nM. Regarding `O=C(NC[C@H](O)CN1CCC(Oc2ccc(Cl)c(Cl)c2)CC1)c1sc(=O)[nH]c1C(F)(F)F` [Example 28, N-{(2S)-3-[4-(3,4-Dichlorophenoxy)piperidin-1-yl]-2-hydroxypropyl}-2-oxo-4-(trifluoromethyl)-2,3-dihydro-1,3-thiazole-5-carboxamide], the Ki is 39.8 nM. Regarding `Cc1c(OC2CCN(C[C@H](O)CNC(=O)c3ccc(Cl)c(OCC(=O)O)c3)CC2)ccc(Cl)c1Cl` [Example 45, {2-Chloro-5-[({(2R)-3-[4-(3,4-dichloro-2-methylphenoxy)piperidin-1-yl]-2-hydroxypropyl}amino)carbonyl]phenoxy}acetic acid], the Ki was 63.1 nM. In the case of `CN(C[C@@H](O)CN1CCC(Oc2ccc(Cl)c(Cl)c2)CC1)C(=O)c1sc(=O)[nH]c1C(F)(F)F` [Example 5, N-{(2S)-3-[4-(3,4-Dichlorophenoxy)piperidin-1-yl]-2-hydroxypropyl}-N-methyl-2-oxo-4-(trifluoromethyl)-2,3-dihydro-1,3-thiazole-5-carboxamide], the Ki is 126 nM. With `O=C(O)c1ccc(C(=O)NC[C@@H](O)CN2CCC(Oc3ccc(Cl)c(Cl)c3)CC2)c2ccccc12` [Example 20, 4-[({(2R)-3-[4-(3,4-Dichlorophenoxy)piperidin-1-yl]-2-hydroxypropyl}amino)-carbonyl]-1-naphthoic acid], the Ki was 200 nM.

System in another data set: not listed separately
Put plainly: pKa measurement (Sirius GLpKa). The format is physicochemical. Conditions: ionic strength adjusted (0.10 M KCl) water; Method B: potentiometric method; read-out: pKa (measured using Method B). As for the experimental part:
The pKa of a compound of formula (I) is measured using one of the following methodologies.
The apparatus used consists of a Sirius GLpKa instrument with DPAS (Dip Probe Absorption Spectroscopy) attachment. Key elements of the apparatus are a Sirius pH electrode, stirrer, titrant dispensing tubes, a multi-tipped dispenser, motor driven dispensing syringes, fibre optic UV probe and diode array detector. In addition, solutions in PTFE containers of ionic strength adjusted (0.10 M KCl) distilled water, nominally 0.50 M HCl, nominally 0.50 M KOH and 80% v/v methanol:water are also housed within the instrument. The titration solutions are constantly purged with oxygen free nitrogen. The reservoir for the potassium hydroxide solution is further protected from atmospheric contamination by a soda-lime guard-tube. Samples are placed in titration vessels which in turn are placed in a movable autosampler tray (maximum capacity 48 samples). The electrode, stirrer, dispensing tubing/tips and DPAS probe are housed on a movable, automated z-tower unit, which, controlled by software, positions itself in the appropriate titration vessel when titrating. The Sirius GLpKa instrument is directly connected to a dedicated PC supporting software for assay setup and subsequent data analysis. Assays are set up using the GlpKaControl software and results are analysed using the pKaLOGP and pKaUV software on the PC. The software also allows determination of multiple pKas using complex curve fitting analyses.
Method B: Potentiometric Method
Two types of potentiometric titrations may be performed in order to determine a compound's pKa/pKas; a purely aqueous titration (recommended for fairly water soluble compounds) and a cosolvent titration, where variable amounts of methanol are added to the sample in addition to ionic strength adjusted water (recommended for compounds which are not soluble in water). For the latter, a value for the compound's pKa in pure ionic strength adjusted water can be estimated by the Yasuda-Shedlovsky procedure. This involves measuring the apparent pKa of the compound at three known weight percentages of methanol:water (transposed into reciprocals of the dielectric constants of the medium, 1/εr) and then extrapolating to 0 wt % methanol (1/εr=[…]).
The GLpKa instrument unit also houses two aqueous wash containers (containing distilled water), a waste beaker (to dispense extraneous solutions into) and a container holding pH 7.00 buffer solution for the electrode to be immersed in during periods between titrations. Each time a set of titrations is carried out, these solutions are replaced. Position 1 in the autosampler contains a titration vessel containing pH 7.00 buffer solution (changed for each titration set). For each titration set to be run, position 2 houses a titration vessel into which ionic strength adjusted water is dispensed (typically 15.00 mL). This in turn is adjusted to pH 1.80 with aqueous HCl and then titrated to pH 12.20 by gradual addition of aqueous KOH. This is referred to as a blank titration and is employed by the pKaLogP software in order to calibrate the pH electrode and to standardise the HCl solution, using the so-called four-plus parameter procedure. Periodically, (typically every 3 months, or when the titration solutions run low) the titration solutions are replaced and the KOH solution standardised against potassium hydrogen phthalate using a standardisation procedure within the GLpKaControl software. Between 1-2 mg of each sample must be accurately weighed out. Samples are placed in provided glass titration vessels. The weight of compound must be entered into the GLpKaControl software. […]
For `O=C(NC[C@@H](O)CN1CCC(Oc2ccc(Cl)c(Cl)c2)CC1)c1nn[nH]c1C(F)(F)F` [Example 38, N-{(2R)-3-[4-(3,4-Dichlorophenoxy)piperidin-1-yl]-2-hydroxypropyl}-5-(trifluoromethyl)-1H-1,2,3-triazole-4-carboxamide], the pKa is 4. Regarding `O=C(NC[C@@H](O)CN1CCC(Oc2ccc(Cl)c(Cl)c2)CC1)c1ccc(=O)[nH]c1C(F)(F)F` [Example 1, N-{(2R)-3-[4-(3,4-Dichlorophenoxy)piperidin-1-yl]-2-hydroxypropyl}-6-oxo-2-(trifluoromethyl)-1,6-dihydropyridine-3-carboxamide], the pKa was 5.9.

For the compound `Cc1c(Cl)ccc(OC2CCN(C[C@H](O)CNC(=O)c3cc(C#N)c(=O)[nH]c3C(F)(F)F)CC2)c1Cl` [Example 11, 5-Cyano-N-{(2R)-3-[4-(2,4-dichloro-3-methylphenoxy)piperidin-1-yl]-2-hydroxypropyl}-6-oxo-2-(trifluoromethyl)-1,6-dihydropyridine-3-carboxamide], the pKa is 3. Turning to `O=C(NC[C@@H](O)CN1CCC(Oc2ccc(Cl)c(Cl)c2)CC1)c1nn[nH]c1SCC(F)(F)F` [Example 19, N-{(2R)-3-[4-(3,4-Dichlorophenoxy)piperidin-1-yl]-2-hydroxypropyl}-5-[(2,2,2-trifluoroethyl)thio]-1H-1,2,3-triazole-4-carboxamide], the pKa was 5.2. For `CS(=O)(=O)Nc1nc(C(F)(F)F)c(C(=O)NC[C@@H](O)CN2CCC(Oc3ccc(Cl)c(Cl)c3)CC2)s1` [Example 21, N-{(2R)-3-[4-(3,4-Dichlorophenoxy)piperidin-1-yl]-2-hydroxypropyl}-2-[(methylsulfonyl)amino]-4-(trifluoromethyl)-1,3-thiazole-5-carboxamide], the pKa was found to be 7.5. On the same count and under the same terms, the result for `CSc1[nH]nnc1C(=O)NC[C@@H](O)CN1CCC(Oc2ccc(Cl)c(Cl)c2)CC1` [Example 36, N-{(2R)-3-[4-(3,4-Dichlorophenoxy)piperidin-1-yl]-2-hydroxypropyl}-5-(methylthio)-1H-1,2,3-triazole-4-carboxamide] reads 5.5; that for `O=C(NC[C@@H](O)CN1CCC(Oc2ccc(Cl)c(Cl)c2)CC1)c1nn[nH]c1-c1ccc(F)cc1` [Example 26, N-{(2R)-3-[4-(3,4-Dichlorophenoxy)piperidin-1-yl]-2-hydroxypropyl}-5-(4-fluorophenyl)-1H-1,2,3-triazole-4-carboxamide], 6.1; that for `O=C(NC[C@@H](O)CN1CCC(Oc2ccc(Cl)c(Cl)c2)CC1)c1sc(=O)[nH]c1C(F)(F)F` [Example 4, N-{(2R)-3-[4-(3,4-Dichlorophenoxy)piperidin-1-yl]-2-hydroxypropyl}-2,3-dihydro-2-oxo-4-(trifluoromethyl)-5-thiazolecarboxamide], 4.7. `N#Cc1cc(C(=O)NC[C@@H](O)CN2CCC(Oc3ccc(Cl)c(Cl)c3)CC2)c(-c2ccccc2)[nH]c1=O` [Example 12, 5-Cyano-N-{(2R)-3-[4-(3,4-dichlorophenoxy)piperidin-1-yl]-2-hydroxypropyl}-6-oxo-2-phenyl-1,6-dihydropyridine-3-carboxamide]: the pKa stood at 3. Regarding `Cc1c(OC2CCN(C[C@H](O)CNC(=O)c3sc(=O)[nH]c3C(F)(F)F)CC2)ccc(C#N)c1Cl` [Example 40, N-{(2R)-3-[4-(3-Chloro-4-cyano-2-methylphenoxy)piperidin-1-yl]-2-hydroxypropyl}-2-oxo-4-(trifluoromethyl)-2,3-dihydro-1,3-thiazole-5-carboxamide], the pKa worked out at 4.7.

In the case of `O=C(NC[C@@H](O)CN1CCC(Oc2ccc(Cl)c(Cl)c2)CC1)c1sc(=O)[nH]c1CC(F)(F)F` [Example 33, N-{(2R)-3-[4-(3,4-Dichlorophenoxy)piperidin-1-yl]-2-hydroxypropyl}-2-oxo-4-(2,2,2-trifluoroethyl)-2,3-dihydro-1,3-thiazole-5-carboxamide], the pKa was determined as 6.6.

Staying with this data set, now noted: method not stated; read-out: measured pKa.
As for `Cc1c(OC2CCN(C[C@H](O)CNC(=O)COc3cccc(C(=O)O)c3)CC2)ccc(Cl)c1Cl` [Example 46, 3-[2-({(2R)-3-[4-(3,4-Dichloro-2-methylphenoxy)piperidin-1-yl]-2-hydroxypropyl}amino)-2-oxoethoxy]benzoic acid], the pKa was determined as 2.6.
